Test results: patent US10428080B2, “TBK/IKK inhibitor compounds and uses thereof” (Merck Patent GmbH, priority 2015, dated 2019)
pIC50: −log10 of the molar value. Where a name gives a salt, the structure may show the parent alone.

Experiments:
IKKε = molecular target: T1, IKKε (Homo sapiens, UniProt Q14164); assay: IKKe Biochemical Assay; conditions: read-out: IKKε IC50
T1 sequence (Q14164 1-716): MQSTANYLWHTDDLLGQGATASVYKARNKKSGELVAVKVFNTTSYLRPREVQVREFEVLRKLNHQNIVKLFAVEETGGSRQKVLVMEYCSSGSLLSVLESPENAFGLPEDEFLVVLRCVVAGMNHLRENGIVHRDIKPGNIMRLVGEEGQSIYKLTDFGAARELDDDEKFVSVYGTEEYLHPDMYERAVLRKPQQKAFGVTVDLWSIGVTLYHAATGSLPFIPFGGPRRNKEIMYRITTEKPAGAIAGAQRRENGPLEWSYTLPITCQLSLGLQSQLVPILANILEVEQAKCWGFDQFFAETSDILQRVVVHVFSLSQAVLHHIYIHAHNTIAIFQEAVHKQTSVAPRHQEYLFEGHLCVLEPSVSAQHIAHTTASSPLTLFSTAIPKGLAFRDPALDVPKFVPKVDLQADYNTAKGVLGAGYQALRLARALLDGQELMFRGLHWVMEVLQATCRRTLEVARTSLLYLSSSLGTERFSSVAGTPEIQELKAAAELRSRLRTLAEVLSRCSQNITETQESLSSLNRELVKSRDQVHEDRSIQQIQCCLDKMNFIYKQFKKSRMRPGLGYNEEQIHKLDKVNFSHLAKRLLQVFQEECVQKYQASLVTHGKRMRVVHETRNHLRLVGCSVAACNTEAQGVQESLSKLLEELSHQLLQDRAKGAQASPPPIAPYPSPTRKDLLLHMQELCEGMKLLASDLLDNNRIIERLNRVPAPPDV
How it was run: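 Activity was measured as mobility-shift separation of phosphorylated from unphosphorylated substrate on a LabChip EZ Reader. Compound was titrated from 30 uM final in 10 points, 1:4 steps, with 1% DMSO, and enzyme plus substrate reacted 90 min at 25° C before stop buffer. Control wells held 10 uM staurosporine.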

[1] = system: phosphorylation of the IRF-3 protein in MDA-MB-468 cells; assay: pIRF3 immunocytochemistry cell based assay; conditions: Homo sapiens; MDA-MB-468 cells, Poly(I:C) stimulation; read-out: pIRF3 IC50
How it was run: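 After 2 h stimulation with Poly(I:C) (10 ug/ml), following 1 h compound pre-treatment (10-point, 3-fold dilution, top 10 uM), MDA-MB-468 cells were fixed and stained with anti-pIRF3 antibody. pIRF3 fluorescence was normalized to PI staining or cell count on an Acumen cytometer. IC50 curves were derived from this.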

TBK1 = molecular target: T2, TBK1 (Homo sapiens, UniProt Q9UHD2); assay: TBK Biochemical Assay; conditions: read-out: TBK1 IC50
T2 sequence (Q9UHD2 1-729): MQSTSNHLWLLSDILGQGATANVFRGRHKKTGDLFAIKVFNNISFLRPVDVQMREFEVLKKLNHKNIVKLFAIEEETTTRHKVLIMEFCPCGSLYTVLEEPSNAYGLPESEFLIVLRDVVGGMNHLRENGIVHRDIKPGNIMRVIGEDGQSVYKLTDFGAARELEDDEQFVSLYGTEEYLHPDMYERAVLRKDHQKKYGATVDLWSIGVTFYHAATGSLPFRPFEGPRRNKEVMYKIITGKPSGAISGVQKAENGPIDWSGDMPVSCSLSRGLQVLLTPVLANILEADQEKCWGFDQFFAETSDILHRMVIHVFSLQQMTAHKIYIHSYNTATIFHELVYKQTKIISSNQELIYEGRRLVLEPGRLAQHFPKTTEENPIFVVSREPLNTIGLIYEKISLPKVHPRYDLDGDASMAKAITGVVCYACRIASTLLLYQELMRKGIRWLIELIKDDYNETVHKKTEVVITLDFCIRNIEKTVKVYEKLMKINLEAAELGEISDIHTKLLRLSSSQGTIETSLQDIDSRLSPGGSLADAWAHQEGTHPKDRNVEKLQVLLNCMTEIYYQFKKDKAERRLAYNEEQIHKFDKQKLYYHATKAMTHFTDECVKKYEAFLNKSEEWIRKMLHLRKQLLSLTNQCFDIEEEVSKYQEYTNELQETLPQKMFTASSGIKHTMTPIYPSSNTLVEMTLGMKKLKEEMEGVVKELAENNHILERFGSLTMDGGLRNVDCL
How it was run: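 Caliper LabChip mobility-shift readout of substrate and product after 90 min of TBK1 reaction at 25° C and stop-buffer addition. Compounds tested in 1:4 serial dilution over 10 points from 30 uM final at 1% DMSO; staurosporine 10 uM final defines full inhibition.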

SMILES	pIC50 (IKKε)	pIC50 [1]	pIC50 (TBK1)
COc1cc(C(=O)N(C)C)ccc1-c1cc2nccc(-c3ccc(NC4CCOCC4O)c(C#N)c3)c2o1 (stereo not drawn) [Compound 82]	> 7.00	6.00 to 7.00	> 7.00
COc1cc(C(=O)NC2C3CNCC32)ccc1-c1cc2nccc(-c3ccc(OC4CCOCC4)c(C#N)c3)c2o1 (stereo not drawn) [Compound 84, N-(3-Aza-bicyclo[3.1.0]hex-6-yl)-4-{7-[3-cyano-4-(tetrahydro-pyran-4-yloxy)-phenyl]-furo[3,2-b]pyridin-2-yl}-3-methoxy-benzamide hydrochloride]	> 7.00	6.00 to 7.00	> 7.00
COc1cc(C(=O)NC2CN3CCC2CC3)ccc1-c1cc2nccc(-c3ccc(N4CCC(F)C4)c(C#N)c3)c2o1 (stereo not drawn) [Compound 87, N-(1-Aza-bicyclo[2.2.2]oct-3-yl)-4-{7-[3-cyano-4-(3-fluoro-pyrrolidin-1-yl)-phenyl]-furo[3,2-b]pyridin-2-yl}-3-methoxy-benzamide]	> 7.00	6.00 to 7.00	> 7.00
COc1cc(C(=O)N(C)C)ccc1-c1cc2nccc(-c3ccc(OC4CCOC4)c(C#N)c3)c2o1 (stereo not drawn) [Compound 90, 4-{7-[3-Cyano-4-(tetrahydro-furan-3-yloxy)-phenyl]-furo[3,2-b]pyridin-2-yl}-3-methoxy-N,N-dimethyl-benzamide]	> 7.00	6.00 to 7.00	> 7.00
COc1cc(C(=O)N2CCC(CO)C2)ccc1-c1cc2nccc(-c3ccc(NC4CCOCC4)c(C#N)c3)c2o1 (stereo not drawn) [Compound 91, 5-{2-[4-(3-Hydroxymethyl-pyrrolidine-1-carbonyl)-2-methoxy-phenyl]-furo[3,2-b]pyridin-7-yl}-2-(tetrahydro-pyran-4-ylamino)-benzonitrile]	> 7.00	6.00 to 7.00	> 7.00
COc1cc(C(=O)N(C)C)ccc1-c1cc2nccc(-c3ccc(OCC4CCOC4)c(C#N)c3)c2o1 (stereo not drawn) [Compound 93, 4-{7-[3-Cyano-4-(tetrahydro-furan-3-ylmethoxy)-phenyl]-furo[3,2-b]pyridin-2-yl}-3-methoxy-N,N-dimethyl-benzamide]	> 7.00	6.00 to 7.00	> 7.00
COc1cc(C(=O)N(C)C)ccc1-c1cc2nccc(-c3ccc(OC4CCCOC4)c(C#N)c3)c2o1 (stereo not drawn) [Compound 105, 4-{7-[3-Cyano-4-(tetrahydro-pyran-3-yloxy)-phenyl]-furo[3,2-b]pyridin-2-yl}-3-methoxy-N,N-dimethyl-benzamide]	> 7.00	6.00 to 7.00	> 7.00
CN(C)C(=O)c1ccc(-c2cc3nccc(-c4ccc(N5CC[C@H](F)C5)c(C#N)c4)c3o2)cc1 [Compound 106, 4-{7-[3-Cyano-4-((S)-3-fluoro-pyrrolidin-1-yl)-phenyl]-furo[3,2-b]pyridin-2-yl}-N,N-dimethyl-benzamide]	> 7.00	6.00 to 7.00	> 7.00
COc1cc(C(=O)N(C)C)ccc1-c1cc2nccc(-c3ccc(OC4CCNC4)c(C#N)c3)c2o1 (stereo not drawn) [Compound 108, 4-{7-[3-Cyano-4-(pyrrolidin-3-yloxy)-phenyl]-furo[3,2-b]pyridin-2-yl}-3-methoxy-N,N-dimethyl-benzamide]	> 7.00	> 7.00	> 7.00
COc1cc(C(=O)N(C)C)ccc1-c1cc2nccc(-c3cnc(OC4CCOCC4)c(C#N)c3)c2o1 [Compound 109, 4-{7-[5-Cyano-6-(tetrahydro-pyran-4-yloxy)-pyridin-3-yl]-furo[3,2-b]pyridin-2-yl}-3-methoxy-N,N-dimethyl-benzamide]	> 7.00	6.00 to 7.00	> 7.00
COc1cc(C(=O)NCC(O)CO)ccc1-c1cc2nccc(-c3ccc(NC4CCOCC4)c(C#N)c3)c2o1 (stereo not drawn) [Compound 111, 4-{7-[3-Cyano-4-(tetrahydro-pyran-4-ylamino)-phenyl]-furo[3,2-b]pyridin-2-yl}-N-(2,3-dihydroxy-propyl)-3-methoxy-benzamide]	> 7.00	6.00 to 7.00	> 7.00
COc1cc(C(=O)N(C)C)ccc1-c1cc2nccc(-c3ccc(OC4CCN(C(C)=O)CC4)c(C#N)c3)c2o1 [Compound 112, 4-{7-[4-(1-Acetyl-piperidin-4-yloxy)-3-cyano-phenyl]-furo[3,2-b]pyridin-2-yl}-3-methoxy-N,N-dimethyl-benzamide]	> 7.00	6.00 to 7.00	> 7.00

Now from value to compound:

pIC50 (IKKε)	pIC50 [1]	pIC50 (TBK1)	SMILES
> 7.00	6.00 to 7.00	> 7.00	COc1cc(C(=O)NOC2COC2)ccc1-c1cc2nccc(-c3ccc(OC4CCOCC4)c(C#N)c3)c2o1 [Compound 80, 4-{7-[3-Cyano-4-(tetrahydro-pyran-4-yloxy)-phenyl]-furo[3,2-b]pyridin-2-yl}-3-methoxy-N-(oxetan-3-yloxy)-benzamide]
> 7.00	6.00 to 7.00	> 7.00	COc1cc(C(=O)O)ccc1-c1cc2nccc(-c3ccc(NC4CCOCC4)c(C#N)c3)c2o1 [Compound 88]
> 7.00	6.00 to 7.00	> 7.00	COc1cc(C(=O)NCC2CCNCC2)ccc1-c1cc2nccc(-c3ccc(OC4CCOCC4)c(C#N)c3)c2o1 [Compound 92, 4-{7-[3-Cyano-4-(tetrahydro-pyran-4-yloxy)-phenyl]-furo[3,2-b]pyridin-2-yl}-3-methoxy-N-piperidin-4-ylmethyl-benzamide hydrochloride]
> 7.00	6.00 to 7.00	> 7.00	COc1cc(C(=O)NC2CNCC(F)(F)C2)ccc1-c1cc2nccc(-c3ccc(OC4CCOCC4)c(C#N)c3)c2o1 (stereo not drawn) [Compound 98, 4-{7-[3-Cyano-4-(tetrahydro-pyran-4-yloxy)-phenyl]-furo[3,2-b]pyridin-2-yl}-N-(5,5-difluoro-piperidin-3-yl)-3-methoxy-benzamide hydrochloride]
> 7.00	6.00 to 7.00	> 7.00	COc1cc(C(=O)N2CC(O)C2)ccc1-c1cc2nccc(-c3ccc(NC4CCOCC4)c(C#N)c3)c2o1 [Compound 101, 5-{2-[4-(3-Hydroxy-azetidine-1-carbonyl)-2-methoxy-phenyl]-furo[3,2-b]pyridin-7-yl}-2-(tetrahydro-pyran-4-ylamino)-benzonitrile]
> 7.00	6.00 to 7.00	> 7.00	COc1cc(C(=O)N2CCC(O)C2)ccc1-c1cc2nccc(-c3ccc(NC4CCOCC4)c(C#N)c3)c2o1 (stereo not drawn) [Compound 104, 5-{2-[4-(3-Hydroxy-pyrrolidine-1-carbonyl)-2-methoxy-phenyl]-furo[3,2-b]pyridin-7-yl}-2-(tetrahydro-pyran-4-ylamino)-benzonitrile]
> 7.00	6.00 to 7.00	> 7.00	COc1cc(C(=O)NN)ccc1-c1cc2nccc(-c3ccc(OC4CCOCC4)c(C#N)c3)c2o1 [Compound 110, 4-{7-[3-Cyano-4-(tetrahydro-pyran-4-yloxy)-phenyl]-furo[3,2-b]pyridin-2-yl}-3-methoxy-benzoic acid hydrazide]
> 7.00	6.00 to 7.00	> 7.00	CC(C)N1CCN(C(=O)c2ccc(-c3cc4nccc(-c5ccc(OC6CCOCC6)c(C#N)c5)c4o3)cc2)CC1 [Compound 116, 5-{2-[4-(4-Isopropyl-piperazine-1-carbonyl)-phenyl]-furo[3,2-b]pyridin-7-yl}-2-(tetrahydro-pyran-4-yloxy)-benzonitrile]
